How the values were obtained:
[1] = target: T1, melatonin ML1b receptor (Homo sapiens, UniProt P49286); assay: Melatonergic receptor binding, 2-[125I]-iodomelatonin, ML1b; conditions: NIH-3T3 membranes, 0.2 nM 2-[125I]-iodomelatonin, 37° C. 1 hour
T1 construct: expressed in transfected cells; membrane homogenates
T1 sequence (P49286 1-362): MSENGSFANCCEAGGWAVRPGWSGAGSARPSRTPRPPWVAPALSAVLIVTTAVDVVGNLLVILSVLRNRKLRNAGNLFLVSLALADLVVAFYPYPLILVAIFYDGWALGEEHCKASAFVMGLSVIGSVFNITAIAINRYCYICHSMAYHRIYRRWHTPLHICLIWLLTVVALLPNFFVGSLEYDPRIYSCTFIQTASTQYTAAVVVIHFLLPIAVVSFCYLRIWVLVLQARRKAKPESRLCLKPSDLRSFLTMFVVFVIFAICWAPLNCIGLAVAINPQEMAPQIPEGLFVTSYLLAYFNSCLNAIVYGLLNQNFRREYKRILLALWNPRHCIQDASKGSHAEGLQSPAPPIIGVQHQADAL
Protocol: (§1) Melatonergic Receptor Binding Activity
(§2) (a) TME=50 mM Tris buffer containing 12.5 mM MgCl2, and 2 mM EDTA, pH 7.4 at 37° C., with concentrated HCl.
(§3) (b) Wash buffer: 20 mM Tris base containing 2 mM MgCl2, pH 7.4 at room temperature.
(§4) (c) 10^−4 M melatonin (10^−5 M final concentration).
(e) 2-[^125I]-iodomelatonin ML1b, 0.2 nM final concentration.
(§5) 2. Membrane Homogenates: The melatonin ML1a and ML1b receptors cDNA were individually subcloned into pcDNA3 and introduced into NIH-3T3 cells using Lipofectamine. Transformed NIH-3T3 cells resistant to geneticin (G-418) were isolated, and single colonies expressing high levels of 2[^125I]-iodomelatonin binding were isolated. Cells are maintained in DMEM supplemented with 10% calf serum and G-418 (0.5 g/liter). Cells are grown to confluency in T-175 flasks, scraped using Hank's balanced salt solution, and frozen at −80° C. For preparing membrane homogenates, pellets are thawed on ice, and re-suspended in TME buffer in the presence of 10 μg/ml aprotinin and leupeptin, and 100 μM phenylmethylsulfonylfluoride. The cells were then homogenized using a dounce homogenizer, and centrifuged. The resulting pellet was re-suspended with dounce homogenizer in TME (supplemented with the above protease inhibitors) and frozen. On the day of assay, a small aliquot was thawed on ice and re-suspended in the ice cold TME (1:50-1:100 v/v) and held on ice until assayed.
(§6) 3. Incubation: 37° C. for 1 hour. Reaction is terminated by filtration. Filters were washed 3 times.
(§7) 4. References: Reppert, S. M. et al., Neuron, 13, p. 1177-1185 (1994); and Reppert, S. M. et al., Proc. Natl. Acad. Sci. USA, 92, p. 8734-8738 (1995).
(§8) The compounds of the present invention have affinity for receptors of the endogenous pineal hormone, melatonin, as determined in receptor binding assays described above in Tables I to III for the ML1a and ML1b (human) receptors. Melatonin is involved in the regulation of a variety of biological rhythms and exerts its biological effects via interaction with specific receptors. There is evidence that administration of melatonin agonists are of clinical utility in the treatment of various conditions regulated by melatonin activity. Such conditions include depression, jet-lag, work-shift syndrome, sleep disorders, glaucoma, some disorders associated with reproduction, cancer benign prostatic hyperplasia, immune disorders, and neuroendocrine disorders.

[2] = target: T2, melatonin ML1a receptor (Homo sapiens, UniProt P48039); assay: Melatonergic receptor binding, 2-[125I]-iodomelatonin, ML1a; conditions: NIH-3T3 membranes, 0.1 nM 2-[125I]-iodomelatonin, 37° C. 1 hour
T2 construct: expressed in transfected cells; membrane homogenates
T2 sequence (P48039 whole entry): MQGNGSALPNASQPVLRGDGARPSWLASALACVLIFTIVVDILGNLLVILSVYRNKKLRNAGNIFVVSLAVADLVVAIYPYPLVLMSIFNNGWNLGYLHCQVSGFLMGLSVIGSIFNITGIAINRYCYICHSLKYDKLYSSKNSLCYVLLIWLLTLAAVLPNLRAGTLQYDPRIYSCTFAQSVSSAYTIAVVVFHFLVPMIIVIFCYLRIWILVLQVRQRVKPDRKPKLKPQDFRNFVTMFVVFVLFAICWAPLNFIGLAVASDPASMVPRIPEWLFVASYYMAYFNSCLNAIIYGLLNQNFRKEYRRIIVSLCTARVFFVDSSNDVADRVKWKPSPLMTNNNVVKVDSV
Protocol: as §1, §2, §3, §4
(d) 2-[^125I]-iodomelatonin ML1a, 0.1 nM final concentration.
as §5, §6, §7, §8

| IC50 ([1]; Table I) | IC50 ([2]; Table I) | IC50 ([1]; Table II) | IC50 ([2]; Table II) | SMILES |
| --- | --- | --- | --- | --- |
| – | – | < 10 nM | < 10 nM | CCc1nc2ccc(C)c(CCCNC(=O)C3CC3)c2o1 [Example 46, Cyclopropyl-N-[3-(2-ethyl-6-methylbenzoxazol-7-yl)propyl]carboxamide] |
| – | – | < 10 nM | 10 to 250 nM | CCc1nc2ccc(-c3ccc(F)cc3)c(CCCNC(C)=O)c2o1 [Example 47, N-{3-[2-Ethyl-6-(4-fluorophenyl)benzoxazol-7-yl]propyl}acetamide] |
| – | – | 10 to 250 nM | > 250 nM | CCc1nc2ccc(-c3ccc(F)cc3)c(CCCNC(=O)c3ccccc3)c2o1 [Example 48, N-{3-[2-Ethyl-6-(4-fluorophenyl)benzoxazol-7-yl]propyl}benzamide] |
| – | – | < 10 nM | 10 to 250 nM | CCc1nc2ccc(-c3ccc(F)cc3)c(CCCNC(=O)C3CC3)c2o1 [Example 49, Cyclopropyl-N-{3-[2-ethyl-6-(4-fluorophenyl)benzoxazol-7-yl]propyl}carboxamide] |
| – | – | 10 to 250 nM | > 250 nM | CCc1nc2ccc(-c3ccc(C(F)(F)F)cc3)c(CCCNC(C)=O)c2o1 [Example 50, N-(3-{2-Ethyl-6-[4-(trifluoromethyl)phenyl]benzoxazol-7-yl}propyl)acetamide] |
| – | – | 10 to 250 nM | > 250 nM | CCc1nc2ccc(-c3ccc(C(F)(F)F)cc3)c(CCCNC(=O)C3CC3)c2o1 [Example 51, Cyclopropyl-N-(3-{2-ethyl-6-[4-(trifluoromethyl)phenyl]benzoxazol-7-yl}propyl)carboxamide] |
| – | – | < 10 nM | 10 to 250 nM | CCc1nc2ccc(-c3ccc(OC)cc3)c(CCCNC(C)=O)c2o1 [Example 52, N-{3-[2-Ethyl-6-(4-methoxyphenyl)benzoxazol-7-yl]propyl}acetamide] |
| – | – | 10 to 250 nM | > 250 nM | CCc1nc2ccc(-c3ccc(OC)cc3)c(CCCNC(=O)C3CC3)c2o1 [Example 54, Cyclopropyl-N-{3-[2-ethyl-6-(4-methoxyphenyl)benzoxazol-7-yl]propyl}carboxamide] |
| – | – | < 10 nM | < 10 nM | CCc1nc2ccc(-c3ccccc3)c(CCCNC(C)=O)c2o1 [Example 55, N-[3-(2-Ethyl-6-phenylbenzoxazol-7-yl)propyl]acetamide] |
| – | – | < 10 nM | 10 to 250 nM | CCc1nc2ccc(-c3ccccc3)c(CCCNC(=O)C3CC3)c2o1 [Example 57, Cyclopropyl-N-[3-(2-ethyl-6-phenylbenzoxazol-7-yl)propyl]carboxamide] |
| – | – | 10 to 250 nM | 10 to 250 nM | CCc1nc2cc(-c3ccc(F)cc3)cc(CCCNC(=O)C3CC3)c2o1 [Example 60, Cyclopropyl-N-{3-[2-ethyl-5-(4-fluorophenyl)benzoxazol-7-yl]propyl}carboxamide] |
| – | – | > 250 nM | > 250 nM | CCc1nc2cc(-c3ccc(OC)cc3)cc(CCCNC(=O)C3CC3)c2o1 [Example 64, Cyclopropyl-N-{3-[2-ethyl-5-(4-methoxyphenyl)benzoxazol-7-yl]propyl}carboxamide] |

Continued, compound first:

| SMILES | IC50 ([1]; Table I) | IC50 ([2]; Table I) | IC50 ([1]; Table II) | IC50 ([2]; Table II) |
| --- | --- | --- | --- | --- |
| CC(C)c1nc2cccc(CCCNC(=O)C3CC3)c2o1 [Example 38, Cyclopropyl-N-{3-[2-(methylethyl)benzoxazol-7-yl]propyl}carboxamide] | > 250 nM | 10 to 250 nM | – | – |
| CCNC(=O)NCCCc1cccc2nc(C(C)C)oc12 [Example 39, (Ethylamino)-N-{3-[2-(methylethyl)benzoxazol-7-yl]propyl}carboxamide] | 10 to 250 nM | > 250 nM | – | – |
| CCc1nc2cc(Br)cc(CCCNC(=O)OC(C)(C)C)c2o1 [Example 40] | – | – | > 250 nM | 10 to 250 nM |
| C=Cc1ccc2nc(CC)oc2c1CCCNC(=O)OC(C)(C)C [Example 41, N-t-Butoxycarbonyl 7-(3-aminopropyl)-6-vinyl-2-ethylbenzoxazole] | – | – | > 250 nM | > 250 nM |
| CCc1nc2ccc(Br)c(CCCNC(C)=O)c2o1 [Example 42, N-Acetyl-7-(3-aminopropyl)-6-bromo-2-ethylbenzoxazole] | – | – | < 10 nM | 10 to 250 nM |
| C=Cc1ccc2nc(CC)oc2c1CCCNC(C)=O [Example 43, N-Acetyl-7-(3-aminopropyl)-6-vinyl-2-ethylbenzoxazole] | – | – | < 10 nM | 10 to 250 nM |
| CCc1nc2ccc(C)c(CCCNC(C)=O)c2o1 [Example 44, N-[3-(2-Ethyl-6-methylbenzoxazol-7-yl)propyl]acetamide] | – | – | 10 to 250 nM | 10 to 250 nM |
| CCc1nc2ccc(C)c(CCCNC(=O)c3ccccc3)c2o1 [Example 45, N-[3-(2-Ethyl-6-methylbenzoxazol-7-yl)propyl]benzamide] | – | – | 10 to 250 nM | 10 to 250 nM |
| CCc1nc2ccc(-c3ccc(OC)cc3)c(CCCNC(=O)c3ccccc3)c2o1 [Example 53, N-{3-[2-Ethyl-6-(4-methoxyphenyl)benzoxazol-7-yl]propyl}benzamide] | – | – | > 250 nM | > 250 nM |
| CCc1nc2ccc(-c3ccccc3)c(CCCNC(=O)c3ccccc3)c2o1 [Example 56, N-[3-(2-Ethyl-6-phenylbenzoxazol-7-yl)propyl]benzamide] | – | – | 10 to 250 nM | 10 to 250 nM |
| CCc1nc2cc(-c3ccc(F)cc3)cc(CCCNC(C)=O)c2o1 [Example 58, N-[3-(2-Ethyl-5-(4-fluorophenyl)benzoxazol-7-yl)propyl]acetamide] | – | – | 10 to 250 nM | 10 to 250 nM |
| CCc1nc2cc(-c3ccc(F)cc3)cc(CCCNC(=O)c3ccccc3)c2o1 [Example 59, N-{3-[2-Ethyl-5-(4-fluorophenyl)benzoxazol-7-yl]propyl}benzamide] | – | – | > 250 nM | > 250 nM |
| CCc1nc2cc(-c3ccc(C(F)(F)F)cc3)cc(CCCNC(=O)c3ccccc3)c2o1 [Example 61, N-(3-{2-Ethyl-5-[4-(trifluoromethyl)phenyl]benzoxazol-7-yl}propyl)benzamide] | – | – | > 250 nM | 10 to 250 nM |
| CCc1nc2cc(-c3ccc(OC)cc3)cc(CCCNC(C)=O)c2o1 [Example 62, N-{3-[2-Ethyl-5-(4-methoxyphenyl)benzoxazol-7-yl]propyl}acetamide] | – | – | 10 to 250 nM | 10 to 250 nM |
| CCc1nc2cc(-c3ccc(OC)cc3)cc(CCCNC(=O)c3ccccc3)c2o1 [Example 63, N-{3-[2-Ethyl-5-(4-methoxyphenyl)benzoxazol-7-yl]propyl}benzamide] | – | – | > 250 nM | 10 to 250 nM |
| CCc1nc2cc(-c3ccccc3)cc(CCCNC(C)=O)c2o1 [Example 65, N-[3-(2-Ethyl-5-phenylbenzoxazol-7-yl)propyl]acetamide] | – | – | 10 to 250 nM | > 250 nM |
| CCc1nc2cc(-c3ccccc3)cc(CCCNC(=O)c3ccccc3)c2o1 [Example 66, N-[3-(2-Ethyl-5-phenylbenzoxazol-7-yl)propyl]benzamide] | – | – | > 250 nM | > 250 nM |
| CCc1nc2cc(-c3ccccc3)cc(CCCNC(=O)C3CC3)c2o1 [Example 67, Cyclopropyl-N-[3-(2-ethyl-5-phenylbenzoxazol-7-yl)propyl]carboxamide] | – | – | > 250 nM | 10 to 250 nM |
| CCc1nc2cc(Br)cc(CCCNC(C)=O)c2o1 [Example 68, N-[3-(5-Bromo-2-ethylbenzoxazol-7-yl)propyl]acetamide] | – | – | 10 to 250 nM | > 250 nM |
| CCc1nc2cc(Br)cc(CCCNC(=O)c3ccccc3)c2o1 [Example 69, N-[3-(5-Bromo-2-ethylbenzoxazol-7-yl)propyl]benzamide] | – | – | > 250 nM | > 250 nM |
| CCc1nc2cc(Br)cc(CCCNC(=O)C3CC3)c2o1 [Example 70, N-[3-(5-Bromo-2-ethylbenzoxazol-7-yl)propyl]cyclopropylcarboxamide] | – | – | 10 to 250 nM | > 250 nM |

From patent US6737431B2 (Bristol-Myers Squibb Company, priority 2002, dated 2004)
